ChEMBL document CHEMBL1145985, “Poly(ethylene glycol) transport forms of vancomycin: a long-lived continuous release delivery system” (J Med Chem, 2003)
Values after ≈ are worked out from the molar mass of the structure shown.

Key:
[1] = Half-life in human plasma; type: ADME, cell-free
[2] = Solubility was measured in saline at 25 degree C; type: physicochemical
Mus musculus [3] = species on record: Mus musculus; assay: Anti-microbial activity against Staphylococcus aureus measured as percent survival of mice 1 hr post challenge; type: functional; set-up: concentration or dose not given beside the values
[4] = Half-life in rat plasma; type: ADME, organism-based
[5] = Maximum plasma concentration measured after intravenous bolus administration of 50 mg/kg of compound to rats; type: ADME, organism-based; set-up: dose 50 mg/kg, route intravenous; settings: rat
[6] = (§1) Circulatory half life measured after intravenous bolus administration of 50 mg/kg of compound to rats; type: ADME, organism-based; set-up: dose 50 mg/kg, route intravenous; settings: rat, in vivo
[7] = Area under the curve measured after intravenous bolus administration of 50 mg/kg of compound to rats; type: ADME, organism-based; set-up: dose 50 mg/kg, route intravenous; settings: rat, in vivo
[8] = (§2) Volume of distribution at a steady state measured after intravenous bolus administration of 50 mg/kg of compound to rats; type: ADME, organism-based; set-up: dose 50 mg/kg, route intravenous; settings: rat, in vivo, read-out: Vss
[9] = (§3) Clearance measured after intravenous bolus administration of 50 mg/kg of compound to rats; type: ADME, organism-based; set-up: dose 50 mg/kg, route intravenous; settings: rat, in vivo
Mus musculus [10] = species on record: Mus musculus; assay: Anti-microbial activity against Staphylococcus aureus measured as percent survival of mice after pre challenge; type: functional
Rattus norvegicus [11] = assay: as §1; type: ADME, organism-based; set-up: dose 50 mg/kg, route intravenous; settings: in vivo
Rattus norvegicus [12] = assay: as §2; type: ADME, organism-based; set-up: dose 50 mg/kg, route intravenous; settings: in vivo
Rattus norvegicus [13] = assay: as §3; type: ADME, organism-based; set-up: dose 50 mg/kg, route intravenous; settings: in vivo

SMILES | half-life [1] [h] | solubility [2] [mg/mL] | Survival (Mus musculus [3]) [%] | half-life [4] [h] | Cmax [5] [µg/mL] | half-life [6] [h] | AUC [7] [µg·h/mL] | Vd [8] [L/kg] | clearance ([9]; read-out: CL (converted)) [mL/min/kg] | Survival (Mus musculus [10]) [%] | T1/2 (Rattus norvegicus [11]) [h] | Vss (Rattus norvegicus [12]) [L/kg] | CL (Rattus norvegicus [13]) [mL/min/kg] | clearance [9] [mL/min/kg]
CN[C@H](CC(C)C)C(=O)N[C@H]1C(=O)N[C@@H](CC(N)=O)C(=O)N[C@H]2C(=O)N[C@H]3C(=O)N[C@H](C(=O)N[C@H](C(=O)O)c4cc(O)cc(O)c4-c4cc3ccc4O)[C@H](O)c3ccc(c(Cl)c3)Oc3cc2cc(c3OC2OC(CO)C(O)C(O)C2OC2CC(C)(NC(=O)OCc3cc(C)c(OC(=O)COCCO)c(C)c3)C(O)C(C)O2)Oc2ccc(cc2Cl)[C@H]1O (some centres undefined) | 6.6 | 131 (≈ 75.7 mM) | 100 | 2 |  |  |  |  |  |  |  |  |  | 
CN[C@H](CC(C)C)C(=O)N[C@H]1C(=O)N[C@@H](CC(N)=O)C(=O)N[C@H]2C(=O)N[C@H]3C(=O)N[C@H](C(=O)N[C@H](C(=O)O)c4cc(O)cc(O)c4-c4cc3ccc4O)[C@H](O)c3ccc(c(Cl)c3)Oc3cc2cc(c3OC2OC(CO)C(O)C(O)C2OC2CC(C)(NC(=O)OCc3cc(C)c(OC(=O)NCCOCCO)c(C)c3)C(O)C(C)O2)Oc2ccc(cc2Cl)[C@H]1O (some centres undefined) | > 24 | 141 (≈ 80.2 mM) | 90 | > 24 | 54.6 | 9.12 | 717 | 1.65 | 1.17 |  |  |  |  | 
CN[C@H](CC(C)C)C(=O)N[C@H]1C(=O)N[C@@H](CC(N)=O)C(=O)N[C@H]2C(=O)N[C@H]3C(=O)N[C@H](C(=O)N[C@H](C(=O)O)c4cc(O)cc(O)c4-c4cc3ccc4O)[C@H](O)c3ccc(c(Cl)c3)Oc3cc2cc(c3OC2OC(CO)C(O)C(O)C2OC2CC(C)(NC(=O)OCc3cc(C)c(OC(=O)C(C)NC(=O)COCCO)c(C)c3)C(O)C(C)O2)Oc2ccc(cc2Cl)[C@H]1O (some centres undefined) | > 24 | 122 (≈ 67.8 mM) | 100 | 16 | 47.9 |  | 282 |  |  | 80 | 4.09 | 2.6408 | 2.972 | 
CN[C@H](CC(C)C)C(=O)N[C@H]1C(=O)N[C@@H](CC(N)=O)C(=O)N[C@H]2C(=O)N[C@H]3C(=O)N[C@H](C(=O)N[C@H](C(=O)O)c4cc(O)cc(O)c4-c4cc3ccc4O)[C@H](O)c3ccc(c(Cl)c3)Oc3cc2cc(c3OC2OC(CO)C(O)C(O)C2OC2CC(C)(NC(=O)OCc3cc(C)c(OC(=O)CNC(=O)COCCO)c(C)c3)C(O)C(C)O2)Oc2ccc(cc2Cl)[C@H]1O (some centres undefined) | 27 | 145 (≈ 81.2 mM) | 100 | 19 | 25.5 | 10.5 | 386 | 2.72 | 2.19 |  |  |  |  | 
CN[C@H](CC(C)C)C(=O)N[C@H]1C(=O)N[C@@H](CC(N)=O)C(=O)N[C@H]2C(=O)N[C@H]3C(=O)N[C@H](C(=O)N[C@H](C(=O)O)c4cc(O)cc(O)c4-c4cc3ccc4O)[C@H](O)c3ccc(c(Cl)c3)Oc3cc2cc(c3OC2OC(CO)C(O)C(O)C2OC2CC(C)(NC(=O)OCc3cc(C)c(OC(=O)NCCOCCOCCNC(=O)CNC(=O)CC(NC(=O)COCCO)C(=O)NCC(=O)NCCOCCOCCNC(=O)Oc4c(C)cc(COC(=O)NC5(C)CC(OC6C(Oc7c8cc9cc7Oc7ccc(cc7Cl)[C@@H](O)[C@@H](NC(=O)[C@@H](CC(C)C)NC)C(=O)N[C@@H](CC(N)=O)C(=O)N[C@H]9C(=O)N[C@H]7C(=O)N[C@H](C(=O)N[C@H](C(=O)O)c9cc(O)cc(O)c9-c9cc7ccc9O)[C@H](O)c7ccc(c(Cl)c7)O8)OC(CO)C(O)C6O)OC(C)C5O)cc4C)c(C)c3)C(O)C(C)O2)Oc2ccc(cc2Cl)[C@H]1O (some centres undefined) | > 24 | 141 (≈ 36 mM) | 100 | 36 | 107 |  | 2180 |  |  |  | 14.2 | 1.341 | 0.383 | 
CN[C@H](CC(C)C)C(=O)N[C@H]1C(=O)N[C@@H](CC(N)=O)C(=O)N[C@H]2C(=O)N[C@H]3C(=O)N[C@H](C(=O)N[C@H](C(=O)O)c4cc(O)cc(O)c4-c4cc3ccc4O)[C@H](O)c3ccc(c(Cl)c3)Oc3cc2cc(c3OC2OC(CO)C(O)C(O)C2OC2CC(C)(NC(=O)OCc3cc(C)c(OC(=O)CNC(=O)CC(NC(=O)COCCO)C(=O)NCC(=O)Oc4c(C)cc(COC(=O)NC5(C)CC(OC6C(Oc7c8cc9cc7Oc7ccc(cc7Cl)[C@@H](O)[C@@H](NC(=O)[C@@H](CC(C)C)NC)C(=O)N[C@@H](CC(N)=O)C(=O)N[C@H]9C(=O)N[C@H]7C(=O)N[C@H](C(=O)N[C@H](C(=O)O)c9cc(O)cc(O)c9-c9cc7ccc9O)[C@H](O)c7ccc(c(Cl)c7)O8)OC(CO)C(O)C6O)OC(C)C5O)cc4C)c(C)c3)C(O)C(C)O2)Oc2ccc(cc2Cl)[C@H]1O (some centres undefined) | > 24 | 120 (≈ 33.6 mM) | 100 | 20 | 29.3 |  | 513 |  |  |  | 12.37 | 3.598 | 1.63 | 
O=C(O)COCCO |  | 128 (≈ 1070 mM) |  | > 24 |  |  |  |  |  |  |  |  |  | 
CN[C@H](CC(C)C)C(=O)N[C@H]1C(=O)N[C@@H](CC(N)=O)C(=O)N[C@H]2C(=O)N[C@H]3C(=O)N[C@H](C(=O)N[C@H](C(=O)O)c4cc(O)cc(O)c4-c4cc3ccc4O)[C@H](O)c3ccc(c(Cl)c3)Oc3cc2cc(c3O[C@@H]2O[C@H](CO)[C@@H](O)[C@H](O)[C@H]2O[C@H]2C[C@](C)(N)[C@H](O)[C@H](C)O2)Oc2ccc(cc2Cl)[C@H]1O [VANCOMYCIN] |  |  | 100 |  | 162 | 0.34 | 78.8 | 0.309 |  | 0 |  |  |  | 10.7
